From ChEMBL document CHEMBL1201862, “PubChem BioAssay data set” (2004)
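Results reflect a 48-hour exposure of cells in 96-well plates to compound at five concentrations. Abbreviation: GI50, concentration required for 50% inhibition of growth.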 The source made the active and inactive calls. No stated cut-off is given here; in the data, active = GI50 up to about 1.1 µM and inactive = higher.

Assays:
Assay in all cases: DTP human tumour cell line panel, 48 h
[1] = system: SNB-75
[2] = system: LOX IMVI
[3] = system: NCI-H460
[4] = system: MDA-MB-231
[5] = system: IGROV-1
[6] = system: NCI-H522
[7] = system: TK-10
[8] = system: SF-539
[9] = system: M14
[10] = system: NCI/ADR-RES
[11] = system: 786-0
[12] = system: Hs-578T
[13] = system: OVCAR-5
[14] = system: EKVX
[15] = system: MOLT-4
[16] = system: OVCAR-3
[17] = system: SNB-19
[18] = system: KM12
[19] = system: RPMI-8226
[20] = system: A549
[21] = system: UACC-62
[22] = system: SW-620
[23] = system: SF-295
[24] = system: OVCAR-8
[25] = system: SF-268
[26] = system: MCF7
[27] = system: SK-OV-3
[28] = system: HCC 2998
[29] = system: SK-MEL-2
[30] = system: HOP-62
[31] = system: SR
[32] = system: PC-3
[33] = system: A498
[34] = system: U-251
[35] = system: COLO 205
[36] = system: SK-MEL-5
[37] = system: HL-60
[38] = system: Malme-3M
[39] = system: RXF 393
[40] = system: UO-31
[41] = system: CCRF-CEM
[42] = system: MDA-MB-435
[43] = system: HOP-92
[44] = system: DU-145
[45] = system: NCI-H226
[46] = system: HCT-116
[47] = system: UACC-257
[48] = system: K562
[49] = system: BT-549
[50] = system: NCI-H23
[51] = system: HCT-15
[52] = system: T47D
[53] = system: HT-29
[54] = system: ACHN
[55] = system: SK-MEL-28
[56] = system: OVCAR-4

With `CC(C)[Si](OC1=C(c2ccccc2)C(NC(=O)/C=C/c2ccc([N+](=O)[O-])cc2)CCC1)(C(C)C)C(C)C` (stereo not drawn) the GI50 [1] was > 100 µM (inactive), the GI50 [2] was > 100 µM (inactive) and the GI50 [3] was > 100 µM (inactive). The GI50 [4] was > 100 µM (inactive), the GI50 [5] was > 100 µM (inactive) and the GI50 [6] was > 100 µM (inactive). The GI50 [7] was > 100 µM (inactive), the GI50 [8] was > 100 µM (inactive) and the GI50 [9] was > 100 µM (inactive). The GI50 [10] was > 100 µM (inactive), the GI50 [11] was > 100 µM (inactive) and the GI50 [12] was > 100 µM (inactive). The GI50 [13] was > 100 µM (inactive), the GI50 [14] was > 100 µM (inactive) and the GI50 [15] was > 100 µM (inactive). For the same compound, the GI50 [16] was > 100 µM (inactive), the GI50 [17] was > 100 µM (inactive) and the GI50 [18] was > 100 µM (inactive). For the same compound, the GI50 [19] was 9.71 µM (inactive), the GI50 [20] was > 100 µM (inactive) and the GI50 [21] was > 100 µM (inactive). The GI50 [22] was > 100 µM (inactive), the GI50 [23] was > 100 µM (inactive) and the GI50 [24] was > 100 µM (inactive). The GI50 [25] was > 100 µM (inactive), the GI50 [26] was > 100 µM (inactive) and the GI50 [27] was > 100 µM (inactive). For the same compound, the GI50 [28] was > 100 µM (inactive), the GI50 [29] was > 100 µM (inactive) and the GI50 [30] was > 100 µM (inactive). For the same compound, the GI50 [31] was > 100 µM (inactive), the GI50 [32] was > 100 µM (inactive) and the GI50 [33] was > 100 µM (inactive). The GI50 [34] was > 100 µM (inactive), the GI50 [35] was > 100 µM (inactive) and the GI50 [36] was > 100 µM (inactive). For the same compound, the GI50 [37] was > 100 µM (inactive), the GI50 [38] was > 100 µM (inactive) and the GI50 [39] was > 100 µM (inactive). For the same compound, the GI50 [40] was > 100 µM (inactive), the GI50 [41] was > 100 µM (inactive) and the GI50 [42] was > 100 µM (inactive). The GI50 [43] was > 100 µM (inactive), the GI50 [44] was > 100 µM (inactive) and the GI50 [45] was > 100 µM (inactive). For the same compound, the GI50 [46] was > 100 µM (inactive), the GI50 [47] was > 100 µM (inactive) and the GI50 [48] was > 100 µM (inactive). The GI50 [49] was > 100 µM (inactive), the GI50 [50] was > 100 µM (inactive) and the GI50 [51] was > 100 µM. For the same compound, the GI50 [52] was > 100 µM (inactive) and the GI50 [53] was > 100 µM (inactive).
In the case of `COc1cc(OC)c2[nH]c3c(O)c(-c4c(C)cc5c([nH]c6c(OC)cc(OC)cc65)c4O)c(C)cc3c2c1`, the GI50 [1] is reported as 7.89 µM (inactive), the GI50 [2] is reported as 7.89 µM (inactive) and the GI50 [3] is reported as 8.55 µM (inactive). For the same compound, the GI50 [4] was 9.23 µM (inactive), the GI50 [5] was 7.18 µM (inactive) and the GI50 [6] was 9.06 µM (inactive). For the same compound, the GI50 [54] was 8.77 µM (inactive), the GI50 [7] was 10.1 µM (inactive) and the GI50 [8] was 9.42 µM (inactive). The GI50 [9] was 8.38 µM (inactive), the GI50 [10] was 8.77 µM (inactive) and the GI50 [11] was 8.3 µM (inactive). For the same compound, the GI50 [12] was 9.44 µM (inactive), the GI50 [14] was 6.22 µM (inactive) and the GI50 [16] was 8.87 µM (inactive). The GI50 [18] was 9.4 µM (inactive), the GI50 [20] was 6.49 µM (inactive) and the GI50 [22] was 9.35 µM (inactive). The GI50 [24] was 8.43 µM (inactive), the GI50 [25] was 8.39 µM (inactive) and the GI50 [55] was 9.38 µM (inactive). The GI50 [28] was 8.51 µM (inactive), the GI50 [29] was 9.25 µM (inactive) and the GI50 [30] was 10.3 µM (inactive). For the same compound, the GI50 [32] was 7.91 µM (inactive), the GI50 [34] was 11.7 µM (inactive) and the GI50 [39] was 9.12 µM (inactive). For the same compound, the GI50 [43] was 8.73 µM (inactive), the GI50 [44] was 7.87 µM (inactive) and the GI50 [45] was 9.08 µM (inactive). For the same compound, the GI50 [46] was 8.81 µM (inactive), the GI50 [47] was 9.33 µM (inactive) and the GI50 [49] was 9.02 µM (inactive). For the same compound, the GI50 [56] was 9.42 µM (inactive) and the GI50 [52] was 8.85 µM (inactive).
